Data as given in article PMC4826192 (Oncotarget, 2015).

Tested on: MPNST (malignant peripheral nerve sheath tumor) cells
Experiment: Cell viability assay (Dojindo CCK-8)
Conditions: 500 nmol/L, 72 hours

Cc1ccc(NC(=O)c2ccc(CN3CCN(C)CC3)cc2)cc1Nc1nccc(-c2cccnc2)n1 [imatinib]
anti-proliferative effect, comparison of TKIs: anti-proliferative effect similar to MGCD516
